Target: T1, CFTR (Homo sapiens, UniProt P13569, DEL508-508)
T1 construct: endogenous in cells; host or cells: primary human bronchial epithelial cells, F508del/MF genotype
Experiment: HBE Assay: Ussing chamber assay of CFTR-mediated short-circuit currents in F508del/MF-HBE cells with 1 μM Ivacaftor
Type: cell-based
Details: 20% human serum; for HBE Activity at 10 μM: single fixed concentration of 10 μM
Method in brief: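 F508del/MF-HBE cells at air-liquid interface >14 days were incubated 18-24 h at 37° C with corrector (concentration range or fixed 10 μM) plus 1 μM Ivacaftor in 20% human serum, compounds kept throughout. Ussing chamber, Vhold=0 mV, 37° C, apical amiloride 30 μM; ISC (μA/cm^2) from peak 20 μM forskolin response to steady state after CFTR inhibitor cocktail.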

[1] = with 1 μM Ivacaftor, 18-24 hours

T1 sequence (P13569 with tags, fused parts or gaps DEL508-508): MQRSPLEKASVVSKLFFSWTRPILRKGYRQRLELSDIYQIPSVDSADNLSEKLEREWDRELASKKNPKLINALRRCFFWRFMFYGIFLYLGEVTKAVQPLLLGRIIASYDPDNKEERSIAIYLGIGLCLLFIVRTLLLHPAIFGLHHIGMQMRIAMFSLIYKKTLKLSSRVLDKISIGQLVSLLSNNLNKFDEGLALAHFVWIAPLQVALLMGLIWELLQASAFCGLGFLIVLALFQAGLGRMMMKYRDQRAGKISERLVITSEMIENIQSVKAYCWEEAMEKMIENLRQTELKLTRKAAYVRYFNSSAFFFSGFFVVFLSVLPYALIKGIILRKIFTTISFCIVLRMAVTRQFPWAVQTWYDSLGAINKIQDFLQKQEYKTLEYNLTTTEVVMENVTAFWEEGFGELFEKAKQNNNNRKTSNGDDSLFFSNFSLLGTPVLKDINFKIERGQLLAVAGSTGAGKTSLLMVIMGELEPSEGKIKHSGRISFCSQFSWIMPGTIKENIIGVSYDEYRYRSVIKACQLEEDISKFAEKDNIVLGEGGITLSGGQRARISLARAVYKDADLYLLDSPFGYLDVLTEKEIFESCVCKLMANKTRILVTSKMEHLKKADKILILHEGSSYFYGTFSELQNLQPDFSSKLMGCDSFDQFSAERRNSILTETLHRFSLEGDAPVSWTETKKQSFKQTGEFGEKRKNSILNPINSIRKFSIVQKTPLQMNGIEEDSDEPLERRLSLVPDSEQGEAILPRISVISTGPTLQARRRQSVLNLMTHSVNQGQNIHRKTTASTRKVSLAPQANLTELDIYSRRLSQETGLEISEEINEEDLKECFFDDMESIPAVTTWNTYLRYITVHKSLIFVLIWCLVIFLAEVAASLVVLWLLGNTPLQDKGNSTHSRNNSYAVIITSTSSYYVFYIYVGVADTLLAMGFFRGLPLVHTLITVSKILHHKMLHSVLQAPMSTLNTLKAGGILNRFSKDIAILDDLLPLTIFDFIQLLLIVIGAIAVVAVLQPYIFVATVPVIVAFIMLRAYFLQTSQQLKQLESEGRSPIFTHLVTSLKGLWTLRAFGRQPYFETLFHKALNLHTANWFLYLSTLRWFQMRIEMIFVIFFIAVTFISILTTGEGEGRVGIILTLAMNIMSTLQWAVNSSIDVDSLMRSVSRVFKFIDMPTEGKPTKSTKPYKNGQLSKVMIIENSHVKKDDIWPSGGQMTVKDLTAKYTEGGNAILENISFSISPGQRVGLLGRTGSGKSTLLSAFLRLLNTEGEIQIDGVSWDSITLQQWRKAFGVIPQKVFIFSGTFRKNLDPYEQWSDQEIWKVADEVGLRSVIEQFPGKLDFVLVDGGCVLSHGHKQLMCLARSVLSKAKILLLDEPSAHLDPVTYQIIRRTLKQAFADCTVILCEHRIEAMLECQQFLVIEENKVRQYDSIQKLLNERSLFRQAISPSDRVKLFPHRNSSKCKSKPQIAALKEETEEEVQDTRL

SMILES	HBE Activity at 10 μM (with 1 μM Ivacaftor)	EC50 [1]	HBE Max Activity [1]	further results
Cc1cccc(COC(C)C)c1-c1nc2nc(c1C)OC[C@@H](CC(C)(C)C)N(Cc1ncc(N3CCC(C)(C)C3)cn1)C(=O)c1cccc(c1)S(=O)(=O)N2 (atropisomer, axis not shown; (M)) [Compound 220, (5M,11R)-11-(2,2-dimethylpropyl)-12-{[5-(3,3-dimethylpyrrolidin-1-yl)pyrimidin-2-yl]methyl}-7-methyl-6-{2-methyl-6-[(propan-2-yloxy)methyl]phenyl}-9-oxa-2λ^6-thia-3,5,12,19-tetraazatricyclo[12.3.1.14,8]nonadeca-1(17),4(19),5,7,14(18),15-hexaene-2,2,13-trione]	++ (++ is 30-60%)			
Cc1cccc(C(C)C)c1-c1nc2nc(c1C)OC[C@@H](CC(C)(C)C)N(Cc1ncc(N3CCOCC3)cn1)C(=O)c1cccc(c1)S(=O)(=O)N2 (single isomer, unassigned) [Compound 208]		< 1 µM	+++ (+++ is >600%)	
Cc1cccc(C)c1-c1nc2nc(c1C)OC[C@@H](CC(C)(C)C)N(c1cnn(C)c1Br)C(=O)c1cccc(c1)S(=O)(=O)N2 [Compound 56, (11R)-12-(5-Bromo-1-methyl-pyrazol-4-yl)-6-(2,6-dimethylphenyl)-11-(2,2-dimethylpropyl)-7-methyl-2,2-dioxo-9-oxa-2λ^6-thia-3,5,12,19-tetrazatricyclo[12.3.1.14,8]nonadeca-1(18),4(19),5,7,14,16-hexaen-13-one]		< 1 µM	+++ (+++ is >600%)	
Cc1cccc(CC2CCCCC2)c1-c1nc2nc(c1C)OC[C@@H](CC(C)(C)C)N(Cc1ncc(N3CC(C)(C)C3)cn1)C(=O)c1cccc(c1)S(=O)(=O)N2 (atropisomer, axis not shown) [Compound 253]		< 1 µM	+++ (+++ is >600%)	
Cc1cccc(C)c1-c1nc2nc(c1C)OC[C@@H](CC(C)(C)C)N(Cc1ccc(N3CCCCC3)cn1)C(=O)c1cccc(c1)S(=O)(=O)N2 [Compound 85]		< 1 µM	+++ (+++ is >600%)	
Cc1cccc(CC2CCCC2)c1-c1nc2nc(c1C)OC[C@@H](CC(C)(C)C)N(Cc1ncc(N3CCC(C)(C)C3)cn1)C(=O)c1cccc(c1)S(=O)(=O)N2 (atropisomer, axis not shown) [Compound 270]	+++ (+++ is >600%)			
Cc1cccc(C)c1-c1nc2nc(c1F)OC[C@@H](CC(C)(C)C)N(Cc1ncc(N3CCC(C)(C)C3)cn1)C(=O)c1cccc(c1)S(=O)(=O)N2 [Compound 341]				EC50 (range of concentrations with 1 μM Ivacaftor, 18-24 hours): < 1 µM; Emax (with 1 μM Ivacaftor, 18-24 hours, compared to known Vertex corrector with 18 μM Tezacaftor and 1 μM Ivacaftor, read-out: HBE Max activity (%)): > 60%
Cc1cccc(C(C)C)c1-c1nc2nc(c1C)OC[C@@H](CC(C)(C)C)N(Cc1ncc(N3CCOCC3)cn1)C(=O)c1cccc(c1)S(=O)(=O)N2 (single isomer, unassigned) [Compound 209]		< 1 µM	+++ (+++ is >600%)	
Cc1cccc(C(C)C)c1-c1nc2nc(c1C)OC[C@@H](CC(C)(C)C)N(Cc1ccc(N3CCOCC3)cn1)C(=O)c1cccc(c1)S(=O)(=O)N2 (atropisomer, axis not shown) [Compound 300]		< 1 µM	+++ (+++ is >600%)	
Cc1cccc(COC(C)C)c1-c1nc2nc(c1C)OC[C@@H](CC(C)(C)C)N(Cc1nccc(N(C)C(C)C)n1)C(=O)c1cccc(c1)S(=O)(=O)N2 (atropisomer, axis not shown) [Compound 229]	+++ (+++ is >600%)			
Cc1cccc(CC2CCCCC2)c1-c1nc2nc(c1C)OC[C@@H](CC(C)(C)C)N(Cc1ccc(OC(C)C)cn1)C(=O)c1cccc(c1)S(=O)(=O)N2 (atropisomer, axis not shown) [Compound 279]		1 to 3 µM	+++ (+++ is >600%)	
Cc1cccc(CC2CCCC2)c1-c1nc2nc(c1C)OC[C@@H](CC(C)(C)C)N(Cc1ncc(CC(C)C)cn1)C(=O)c1cccc(c1)S(=O)(=O)N2 (atropisomer, axis not shown) [Compound 268]		< 1 µM	+++ (+++ is >600%)	
Cc1cccc(CC2CCCC2)c1-c1nc2nc(c1C)OC[C@@H](CC(C)(C)C)N(Cc1nccc(N(C)C(C)C)n1)C(=O)c1cccc(c1)S(=O)(=O)N2 (atropisomer, axis not shown) [Compound 265]	+++ (+++ is >600%)			

Source: patent US20230374038A1, “MODULATORS OF CYSTIC FIBROSIS TRANSMEMBRANE CONDUCTANCE REGULATOR” (VERTEX PHARMACEUTICALS INCORPORATED, priority 2020, published 2023)
